Where two headings read alike, the source gives them in different places.
How the values were obtained:
[1] = test system: wheat powdery mildew; assay: Protectant activity in vivo (whole plant) against wheat powdery mildew; settings: for pest or weed control at 400 µg/mL: Triticum aestivum, 168 h
Procedure: The method is as followed: The whole plant is used in this test. The compound is dissolved in a proper solvent to get mother solution. The proper solvent is selected from acetone, methanol, DMF and so on according to their dissolving capability to the sample. The volume rate of solvent and testing solution (v/v) is equal to or less than 5%. The mother solution is diluted with water containing 0.1% tween-80 to get the testing solution whose concentration is designed. The testing solution is sprayed to the host plant by a special plant sprayer. The plant is inoculated with fungus after 24 hours. According to the infecting characteristic of fungus, the plant is stored in a humidity chamber and then transferred into greenhouse after infection is finished. And the other plants are placed in greenhouse directly. The activity of compound is obtained by eyeballing after 7 days in common.

[2] = test system: cucumber gray mold; assay: Activity in vitro (96-well, High Through Put): inhibition rate against cucumber gray mold; format: cell-based; settings: for inhibition at 0.3 µg/mL: 0.3 mg/L; for inhibition at 0.9 µg/mL: 0.9 mg/L; for inhibition at 0.9 µg/mL / inhibition at 2.8 µg/mL / inhibition at 8.3 µg/mL: read-out: the inhibition rate against cucumber gray mold (%); for inhibition at 2.8 µg/mL: 2.8 mg/L; for inhibition at 8.3 µg/mL: 8.3 mg/L; for inhibition at 25 µg/mL: dose 25 mg/L
Method in brief: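 Scored visually at 24 hours relative to control, the readout is pathogen germination or growth. Test solutions used acetone, methanol or DMF as solvent and were mixed with pathogen suspension in a sterile high-throughput format at constant temperature.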

[3] = test system: corn rust; assay: Protectant activity in vivo (whole plant) against corn rust; settings: for pest or weed control at 6.25 µg/mL / pest or weed control at 25 µg/mL / pest or weed control at 100 µg/mL / pest or weed control at 400 µg/mL: Zea mays, 168 h; for pest or weed control at 6.25 µg/mL: 6.25 mg/L; for pest or weed control at 25 µg/mL: 25 mg/L; for pest or weed control at 100 µg/mL: 100 mg/L
Method in brief: (§1)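 Whole plants sprayed with test solution, water plus 0.1% Tween-80 and no more than 5% solvent, then inoculated with the pathogen after 24 h. Plants held in humidity chamber or directly in greenhouse depending on fungus. Disease control scored by eye at about 7 days.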

[4] = test system: cucumber downy mildew; assay: Protectant activity in vivo (whole plant) against cucumber downy mildew; settings: Cucumis sativus, 168 h; for pest or weed control at 12.5 µg/mL: 12.5 mg/L; for pest or weed control at 25 µg/mL: 25 mg/L; for pest or weed control at 25 µg/mL / pest or weed control at 50 µg/mL / pest or weed control at 100 µg/mL: read-out: the protectant activity (%) against cucumber downy mildew; for pest or weed control at 50 µg/mL: 50 mg/L; for pest or weed control at 100 µg/mL: 100 mg/L; for pest or weed control at 400 µg/mL: dose 400 mg/L
Method in brief: as §1

[5] = test system: rice blast; assay: microbe, parasite or virus in culture; format: cell-based; settings: Pyricularia oryzae; for inhibition at 0.03 µg/mL: read-out: the inhibition rate against rice blast (%) 0.03 mg/L; for inhibition at 0.1 µg/mL: read-out: the inhibition rate against rice blast (%) 0.1 mg/L
[6] = 400 mg/L, read-out: the protectant activity (%) against corn rust
[7] = dose 400 mg/L, read-out: protectant activity against corn rust in vivo
[8] = read-out: inhibition rate against rice blast
[9] = read-out: the inhibition rate against rice blast (%) 0.3 mg/L

Row | Structure (SMILES) | pest or weed control at 12.5 µg/mL [4] | pest or weed control at 25 µg/mL [4] | pest or weed control at 50 µg/mL [4] | pest or weed control at 100 µg/mL [4] | pest or weed control at 400 µg/mL [4] | inhibition at 0.3 µg/mL [2] | inhibition at 0.9 µg/mL [2] | inhibition at 2.8 µg/mL [2] | inhibition at 8.3 µg/mL [2] | inhibition at 25 µg/mL ([2]; in vitro) | pest or weed control at 400 µg/mL ([1]; dose 400 mg/L) | pest or weed control at 6.25 µg/mL [3] | pest or weed control at 25 µg/mL [3] | pest or weed control at 100 µg/mL [3] | pest or weed control at 400 µg/mL [3, 6] | pest or weed control at 400 µg/mL [3, 7] | inhibition at 0.03 µg/mL [5] | inhibition at 0.1 µg/mL [5] | inhibition at 0.3 µg/mL [5, 9] | other results
1 | N#Cc1c(F)c(F)c(C#N)c(Nc2ccc(Cl)c(C(F)(F)F)c2)c1F [Compound C-91] | – | – | – | – | – | – | – | – | – | – | – | – | – | – | – | – | – | – | – | protectant activity against wheat powdery mildew in vivo ([1]; dose 6.25 mg/L): 70%; protectant activity against wheat powdery mildew in vivo ([1]; dose 100 mg/L): 95%; protectant activity against wheat powdery mildew in vivo ([1]; dose 400 mg/L): 100%
2 | N#Cc1c(F)c(F)c(C#N)c(Nc2c(Cl)cc(C(F)(F)F)cc2Cl)c1F [Compound C-98] | – | – | – | – | – | – | – | – | – | – | – | – | – | – | – | – | – | – | – | inhibition rate against cucumber gray mold ([2]; in vitro, dose 8.3 mg/L): 80%; protectant activity against wheat powdery mildew in vivo ([1]; dose 100 mg/L): 80%; protectant activity against wheat powdery mildew in vivo ([1]; dose 400 mg/L): 100%; protectant activity against corn rust in vivo ([3]; dose 400 mg/L): 100%
3 | N#Cc1c(Cl)c(Cl)c(Nc2ccc(Cl)cc2)c(C#N)c1Cl [KC2] | 0% | 0% | 0% | 0% | 0% | 0% | 0% | 0% | 0% | 0% | 0% | 0% | 0% | 0% | 0% | 0% | 0% | 0% | 0% | inhibition at 25 µg/mL [5, 8]: 0%
4 | Cc1cc(Nc2c(Cl)c(Cl)c(C#N)c(Cl)c2C#N)c(C)cc1Cl [KC6] | – | – | – | – | – | 0% | 0% | – | – | 0% | 0% | 0% | 0% | 0% | 0% | 0% | 0% | 0% | 0% | inhibition at 0.3 µg/mL [5, 8]: 0%
5 | N#Cc1c(F)c(F)c(Nc2ccccc2)c(F)c1C#N [KC13] | 0% | 0% | 0% | 0% | 0% | 0% | 0% | 0% | 0% | 0% | 0% | 0% | 0% | 0% | 0% | 0% | – | – | – | –
6 | COc1ccc(Nc2c(Cl)c(F)c(C#N)c(F)c2C#N)cc1 [KC20] | 0% | 0% | 0% | 0% | 0% | 0% | 0% | 0% | 0% | 50% | 0% | – | – | – | – | 0% | – | – | – | –
7 | CN(C)c1ccc(Nc2c(Cl)c(F)c(C#N)c(F)c2C#N)cc1 [KC25] | 0% | 0% | 0% | 0% | 0% | 0% | 0% | 0% | 0% | 0% | – | 0% | 0% | 0% | 0% | 0% | 0% | 0% | 0% | inhibition at 25 µg/mL [5, 8]: 0%
8 | N#Cc1c(Cl)c(Cl)c(Cl)c(C#N)c1Cl [chlorothalonil] | – | 30% | 80% | 100% | – | 80% | 100% | 100% | 100% | – | – | – | – | – | 50% | – | 0% | 30% | 100% | –
